Source: US12686687B2, “Compounds and uses thereof” (Foghorn Therapeutics Inc., priority 2019, dated 2026)
“Also recorded” adds a separate entry of the source.

Tests used:
Format in all cases: cell-based, human
[1] = test system: synovial sarcoma cell lines (SYO1, Yamato, HS-SY-II, and ASKA); experiment: Growth of synovial sarcoma cell lines (IncuCyte confluency, crystal violet staining, colony imaging); settings: 1 μM or indicated concentrations (FIGS. 5-7)
Protocol: (§1) Cells were treated with DMSO or the BRD9 degrader, Compound 1, at indicated concentrations, and proliferation was monitored from day 7 to day 14 by measuring confluency over time using an IncuCyte live cell analysis system (FIG. 5). Growth medium and compounds were refreshed every 3-4 days.
(§2) Cells were seeded into 12-well plates and treated with DMSO, 1 μM BRD9 inhibitor, Compound 2 (also known as BI-7273, see Martin et al, J Med Chem. 59(10):4462-4475 (2016); see structure of compound 2 below), or 1 μM BRD9 degrader, Compound 1.
(§3) The number of cells was optimized for each cell line. Growth medium and compounds were refreshed every 3-5 days. SYO1, Yamato, A549, 293T and HS-SY-II cells were fixed and stained at day 11. ASKA cells were fixed and stained at day 23. Staining was done by incubation with crystal violet solution (0.5 g Crystal Violet, 27 ml 37% Formaldehyde, 100 mL 10×PBS, 10 mL Methanol, 863 dH2O to 1 L) for 30 minutes followed by 3× washes with water and drying the plates for at least 24h at room temperature. Subsequently plates were scanned on an Odyssey CLx Imaging system (FIG. 6).
(§4) Cells were seeded into 96-well ultra low cluster plate (Costar, #7007) in 200 μL complete media and treated at day 2 with DMSO, Staurosporin, or BRD9 degrader, Compound 1, at indicated doses (FIG. 7).

[2] = test system: non-synovial control cancer cell lines (RD, HCT116, and Calu6); experiment: Growth of non-synovial control cancer cell lines, daily treatment, crystal violet at day 14; settings: treated daily, day 14 (FIG. 9)
Protocol: (§5) Procedure: Cells were seeded into 6-well or 12-well plates and were treated daily with a BRD9 degrader (Compound 1), a bromo-domain BRD9 binder (Compound 2), E3 ligase binder (lenalidomide), DMSO, or staurosporin (positive control for cell killing), at indicated concentrations. The number of cells was optimized for each cell line. Growth media was refreshed every 5 days. By day 14, medium was removed, cells were washed with PBS, and stained using 500 μL of 0.005% (w/v) crystal violet solution in 25% (v/v) methanol for at least 1 hour at room temperature.

[3] = test system: synovial sarcoma cell lines (SYO1, HS-SY-II, and ASKA); experiment: Growth of synovial sarcoma cell lines, daily treatment, crystal violet at day 14; settings: treated daily, day 14 (FIG. 8)
Protocol: as §5

SYO1 cells [4] = experiment: Apoptosis assay (Annexin V-FITC) in SYO1 cells; settings: SYO1, 200 nM or 1 μM, 8 days, compared to DMSO controls
Protocol: (§6) Procedure: SYO1 cells were treated for 8 or 13 days with DMSO, a BRD9 degrader (Compound 1) at 200 nM or 1 μM, or an E3 ligase binder (lenalidomide) at 200 nM. Compounds were refreshed every 5 days. Cell cycle analysis was performed using the Click-iT™ Plus EdU Flow Cytometry Assay (Invitrogen). The apoptosis assay was performed using the Annexin V-FITC Apoptosis Detection Kit (Sigma A9210).

SYO1 cells [5] = experiment: Cell cycle analysis (Click-iT Plus EdU flow cytometry) in SYO1 cells; settings: SYO1, 200 nM or 1 μM, 8 or 13 days, compared to DMSO and lenalidomide
Protocol: as §6

[6] = test system: non-synovial control cancer cell lines (293T, A549, G401); experiment: Growth of non-synovial control cancer cell lines (crystal violet staining, colony imaging); settings: 1 μM or indicated doses (FIGS. 5-7)
Protocol: as §1, §2, §3, §4

COc1cc(-c2cn(C)c(=O)c3cnccc23)cc(OC)c1CN(C)CC(=O)NCCOCCOCCNc1cccc2c1C(=O)N(C1CCC(=O)NC1=O)C2=O (stereo not drawn) [Compound 1]
inhibition of cell growth [1]: inhibition of the growth of the cells | inhibition of cell growth [2]: did not result in inhibition of the growth | inhibition of cell growth [3]: inhibition of the growth of the cells; also recorded: most significant growth inhibition | early- and late-apoptotic cells (SYO1 cells [4]): increased numbers of early- and late-apoptotic cells | cells in the S-phase of the cell cycle (SYO1 cells [5]): reduced numbers of cells in the S-phase | inhibition of cell growth [6]: does not result in inhibition of the growth
